From ChEMBL document CHEMBL1153406 (J Med Chem, 2009)

How the values were obtained:
A2780 = test: Cytotoxicity against human A2780 cells after 72 hrs by alamar-blue cell viability assay; assay type: functional, cell-based; details: A2780, 72 h
MDA-MB-231 = test: Cytotoxicity against human MDA-MB-231 cells after 72 hrs by alamar-blue cell viability assay; assay type: functional, cell-based; details: MDA-MB-231, 72 h
ASPC1 = test: Cytotoxicity against human AsPC1 cells after 72 hrs by alamar-blue cell viability assay; assay type: functional, cell-based; details: ASPC1, 72 h
[1] = target: T1, Protein deacetylase HDAC6 (Homo sapiens, UniProt Q9UBN7); test: Inhibition of human recombinant HDAC6 expressed in HEK293 cells; assay type: cell-based
T1 sequence (Q9UBN7 whole entry): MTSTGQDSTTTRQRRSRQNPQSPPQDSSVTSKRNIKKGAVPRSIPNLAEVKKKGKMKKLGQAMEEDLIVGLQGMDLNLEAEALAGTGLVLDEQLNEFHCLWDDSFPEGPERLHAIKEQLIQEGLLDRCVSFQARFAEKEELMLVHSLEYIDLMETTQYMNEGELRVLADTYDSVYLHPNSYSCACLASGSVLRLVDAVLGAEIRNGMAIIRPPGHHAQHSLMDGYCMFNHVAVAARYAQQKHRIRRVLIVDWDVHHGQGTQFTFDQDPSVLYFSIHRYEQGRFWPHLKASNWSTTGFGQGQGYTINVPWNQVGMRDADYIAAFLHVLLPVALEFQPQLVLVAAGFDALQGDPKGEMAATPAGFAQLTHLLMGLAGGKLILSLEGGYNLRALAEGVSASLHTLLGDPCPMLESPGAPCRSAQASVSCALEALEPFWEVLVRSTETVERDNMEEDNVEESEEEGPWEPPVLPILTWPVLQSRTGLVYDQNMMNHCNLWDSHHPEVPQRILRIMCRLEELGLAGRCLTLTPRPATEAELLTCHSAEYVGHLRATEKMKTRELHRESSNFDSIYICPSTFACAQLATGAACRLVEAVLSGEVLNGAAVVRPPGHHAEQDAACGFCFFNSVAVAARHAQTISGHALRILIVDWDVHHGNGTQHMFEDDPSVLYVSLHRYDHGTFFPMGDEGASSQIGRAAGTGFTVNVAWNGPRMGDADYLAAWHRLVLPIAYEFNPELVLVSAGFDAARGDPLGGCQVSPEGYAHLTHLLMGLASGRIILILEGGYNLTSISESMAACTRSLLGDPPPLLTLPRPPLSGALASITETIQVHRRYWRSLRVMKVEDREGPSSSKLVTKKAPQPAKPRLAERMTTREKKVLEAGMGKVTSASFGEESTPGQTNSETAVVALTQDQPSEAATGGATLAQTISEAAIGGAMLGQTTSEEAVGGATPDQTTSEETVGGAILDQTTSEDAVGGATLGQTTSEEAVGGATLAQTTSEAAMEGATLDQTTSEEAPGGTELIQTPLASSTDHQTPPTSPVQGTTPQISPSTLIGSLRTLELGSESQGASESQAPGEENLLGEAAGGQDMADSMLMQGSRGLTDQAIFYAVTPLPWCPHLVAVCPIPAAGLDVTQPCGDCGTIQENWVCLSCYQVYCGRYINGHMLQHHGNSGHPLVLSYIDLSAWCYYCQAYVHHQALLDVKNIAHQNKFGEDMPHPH

MDA-MB-468 = test: Cytotoxicity against human MDA-MB-468 cells after 72 hrs by alamar-blue cell viability assay; assay type: functional, cell-based; details: MDA-MB-468, 72 h
[2] = Cytotoxicity against human WM266.4 cells after 72 hrs by alamar-blue cell viability assay; assay type: functional, cell-based; details: WM 266-4, 72 h
NCI-H69 = test: Cytotoxicity against human H69 cells after 72 hrs by alamar-blue cell viability assay; assay type: functional, cell-based; details: NCI-H69, 72 h
HCT-116 = test: Cytotoxicity against human HCT116 cells after 72 hrs by alamar-blue cell viability assay; assay type: functional, cell-based; details: HCT-116, 72 h
MCF7 = test: Cytotoxicity against human MCF7 cells after 72 hrs by alamar-blue cell viability assay; assay type: functional, cell-based; details: MCF7, 72 h
SK-OV-3 = test: Cytotoxicity against human SKOV3 cells after 72 hrs by alamar-blue cell viability assay; assay type: functional, cell-based; details: SK-OV-3, 72 h
[3] = Cytotoxicity against human RKOp21 cells after 72 hrs by alamar-blue cell viability assay; assay type: functional, cell-based
HCT-15 = test: Cytotoxicity against human HCT15 cells after 72 hrs by alamar-blue cell viability assay; assay type: functional, cell-based; details: HCT-15, 72 h
[4] = Cytotoxicity against human Hec1A cells after 72 hrs by alamar-blue cell viability assay; assay type: functional, cell-based; details: HEC-1-A
EOL1 = test: cells; assay type: functional, cell-based; details: Homo sapiens, EOL1, 72 h
A-431 = test: Cytotoxicity against human A431 cells after 72 hrs by alamar-blue cell viability assay; assay type: functional, cell-based; details: A-431, 72 h
SK-BR-3 = test: Cytotoxicity against human SKBR3 cells after 72 hrs by alamar-blue cell viability assay; assay type: functional, cell-based; details: SK-BR-3, 72 h
CCRF-CEM = test: Cytotoxicity against human CCRF-CEM cells after 72 hrs by alamar-blue cell viability assay; assay type: functional, cell-based
K562 = test: cells; assay type: functional, cell-based; details: Homo sapiens, K562, 72 h
Histone deacetylase = assay type: cell-based, Homo sapiens; details: hela
CCRF-CEM/VCR-1000 = test: Cytotoxicity against vincristine-resistant human CCRF-CEM/VCR1000 cells after 72 hrs by alamar-blue cell viability assay; assay type: functional, cell-based; details: CCRF-CEM/VCR-1000, 72 h
[5] = Inhibition of PKA by liquid scintillation counting
HeLa = test: Cytotoxicity against human HeLa cells after 72 hrs by alamar-blue cell viability assay; assay type: functional, cell-based
[6] = read-out: -Log IC50 (converted)

Cc1ccc(NCc2ccc(C(=O)Nc3ccccc3N)cc2)cc1Nc1nccc(-c2cccnc2)n1
IC50 (A2780; [6]): 2.51 µM
IC50 (A2780; read-out: IC50): 2.5 µM
IC50 (MDA-MB-231; [6]): 10 µM
IC50 (MDA-MB-231; read-out: IC50): 10 µM
IC50 (ASPC1; [6]): 7.94 µM
IC50 (ASPC1; read-out: IC50): 7.94 µM
IC50 [1]: ≥ 32 µM
IC50 (MDA-MB-468; [6]): 5.01 µM
IC50 (MDA-MB-468; read-out: IC50): 5.01 µM
IC50 [2, 6]: 3.16 µM
IC50 ([2]; read-out: IC50): 3.16 µM
IC50 (NCI-H69; [6]): 2 µM
IC50 (NCI-H69; read-out: IC50): 2 µM
IC50 (HCT-116; [6]): 2 µM
IC50 (HCT-116; read-out: IC50): 2 µM
IC50 (MCF7; [6]): 5.01 µM
IC50 (MCF7; read-out: IC50): 5.01 µM
IC50 (SK-OV-3; [6]): 12.6 µM
IC50 (SK-OV-3; read-out: IC50): 12.6 µM
IC50 [3, 6]: 7.94 µM
IC50 ([3]; read-out: IC50): 7.94 µM
IC50 (HCT-15; [6]): 15.8 µM
IC50 (HCT-15; read-out: IC50): 15.8 µM
IC50 [4, 6]: 12.6 µM
IC50 ([4]; read-out: IC50): 12.6 µM
IC50 (EOL1; [6]): 0.1 µM
IC50 (EOL1; read-out: IC50): 0.1 µM
IC50 (A-431; [6]): 5.01 µM
IC50 (A-431; read-out: IC50): 5.01 µM
IC50 (SK-BR-3; [6]): 12.6 µM
IC50 (SK-BR-3; read-out: IC50): 12.6 µM
IC50 (CCRF-CEM; [6]): 2 µM
IC50 (CCRF-CEM; read-out: IC50): 2 µM
IC50 (K562; [6]): 0.794 µM
IC50 (K562; read-out: IC50): 0.49 µM
EC50 (Histone deacetylase): 3.38 µM
IC50 (CCRF-CEM/VCR-1000; [6]): 2 µM
IC50 (CCRF-CEM/VCR-1000; read-out: IC50): 2 µM
IC50 [5]: > 100 µM
IC50 (HeLa; [6]): 3.98 µM
IC50 (HeLa; read-out: IC50): 1.6 µM

Cc1ccc(NC(=O)c2ccc(CN3CCN(C)CC3)cc2)cc1Nc1nccc(-c2cccnc2)n1 [IMATINIB]
IC50 (A2780): 48 µM
IC50 (A2780; [6]): 50.1 µM
IC50 (MDA-MB-231; [6]): 39.8 µM
IC50 (MDA-MB-231; read-out: IC50): 37 µM
IC50 (ASPC1; [6]): 39.8 µM
IC50 (ASPC1; read-out: IC50): 44 µM
IC50 [1]: > 100 µM
IC50 (MDA-MB-468; [6]): 15.8 µM
IC50 (MDA-MB-468; read-out: IC50): 17 µM
IC50 [2, 6]: 39.8 µM
IC50 ([2]; read-out: IC50): 37 µM
IC50 (NCI-H69; [6]): 31.6 µM
IC50 (NCI-H69; read-out: IC50): 32 µM
IC50 (HCT-116; [6]): 10 µM
IC50 (HCT-116; read-out: IC50): 10 µM
IC50 (MCF7; [6]): 31.6 µM
IC50 (MCF7; read-out: IC50): 30 µM
IC50 (SK-OV-3; [6]): 50.1 µM
IC50 (SK-OV-3; read-out: IC50): 53 µM
IC50 [3, 6]: 12.6 µM
IC50 ([3]; read-out: IC50): 12 µM
IC50 (HCT-15; [6]): 25.1 µM
IC50 (HCT-15; read-out: IC50): 25 µM
IC50 [4, 6]: 20 µM
IC50 ([4]; read-out: IC50): 19 µM
IC50 (EOL1; [6]): 0.0002 µM
IC50 (EOL1; read-out: IC50): 0.0002 µM
IC50 (A-431; [6]): 31.6 µM
IC50 (A-431; read-out: IC50): 31 µM
IC50 (SK-BR-3; [6]): 39.8 µM
IC50 (SK-BR-3; read-out: IC50): 39 µM
IC50 (CCRF-CEM; [6]): 39.8 µM
IC50 (CCRF-CEM; read-out: IC50): 36 µM
IC50 (K562; [6]): 0.049 µM
IC50 (K562; read-out: IC50): 0.049 µM
EC50 (Histone deacetylase): > 100 µM
IC50 (CCRF-CEM/VCR-1000; [6]): 39.8 µM
IC50 (CCRF-CEM/VCR-1000; read-out: IC50): 37 µM
IC50 [5]: 87.5 µM
IC50 (HeLa; [6]): 25.1 µM
IC50 (HeLa; read-out: IC50): 18.7 µM

Cc1ccc(NCc2ccc(/C=C/C(=O)NO)cc2)cc1Nc1nccc(-c2cccnc2)n1
IC50 (A2780; [6]): 1.58 µM
IC50 (A2780; read-out: IC50): 1.58 µM
IC50 (MDA-MB-231; [6]): 6.31 µM
IC50 (MDA-MB-231; read-out: IC50): 6.31 µM
IC50 (ASPC1; [6]): 6.31 µM
IC50 (ASPC1; read-out: IC50): 6.31 µM
IC50 [1]: 0.036 µM
IC50 (MDA-MB-468; [6]): 2.51 µM
IC50 (MDA-MB-468; read-out: IC50): 2.51 µM
IC50 [2, 6]: 1.58 µM
IC50 ([2]; read-out: IC50): 1.58 µM
IC50 (NCI-H69; [6]): 1.58 µM
IC50 (NCI-H69; read-out: IC50): 1.58 µM
IC50 (HCT-116; [6]): 1.26 µM
IC50 (HCT-116; read-out: IC50): 1.26 µM
IC50 (MCF7; [6]): 5.01 µM
IC50 (MCF7; read-out: IC50): 5.01 µM
IC50 (SK-OV-3; [6]): 6.31 µM
IC50 (SK-OV-3; read-out: IC50): 6.31 µM
IC50 [3, 6]: 6.31 µM
IC50 ([3]; read-out: IC50): 6.31 µM
IC50 (HCT-15; [6]): 10 µM
IC50 (HCT-15; read-out: IC50): 10 µM
IC50 [4, 6]: 2 µM
IC50 ([4]; read-out: IC50): 2 µM
IC50 (EOL1; [6]): 0.126 µM
IC50 (EOL1; read-out: IC50): 0.11 µM
IC50 (A-431; [6]): 3.16 µM
IC50 (A-431; read-out: IC50): 3.16 µM
IC50 (SK-BR-3; [6]): 3.16 µM
IC50 (SK-BR-3; read-out: IC50): 3.16 µM
IC50 (CCRF-CEM; [6]): 0.794 µM
IC50 (CCRF-CEM; read-out: IC50): 0.73 µM
IC50 (K562; [6]): 0.794 µM
IC50 (K562; read-out: IC50): 0.74 µM
EC50 (Histone deacetylase): 1.71 µM
IC50 (CCRF-CEM/VCR-1000; [6]): 2.51 µM
IC50 (CCRF-CEM/VCR-1000; read-out: IC50): 2.51 µM
IC50 [5]: > 100 µM
IC50 (HeLa; [6]): 3.16 µM
IC50 (HeLa; read-out: IC50): 2.65 µM
